From patent publication US20250176599A1, “FLAVOR COMPOSITION AND FOOD AND BEVERAGE” (TAKASAGO INTERNATIONAL CORPORATION, priority 2021, published 2025)

What was measured:
[1] = Overall conclusion of the sensory evaluation across aqueous solutions I to VI
Experimental: (§1) In ion-exchanged water, each degradation component was added to achieve the concentrations listed in Table 1, and aqueous solutions I to VI containing these degradation components were prepared.
(§2) For the aforementioned aqueous solutions containing degradation components, nootkatone was added at the concentrations listed in Table 2 to confirm the intensity of the off-flavor (masking effect) in each sample and the intensity of the masking component itself (the impact on the flavor of the food and/or beverage itself).
(§3) The test was conducted as follows. Eight experienced panelists were selected to conduct a sensory evaluation. The intensity of the off-flavor of the aqueous solution containing the degradation components derived from unsaturated fatty acids, without added masking components, was set as “Evaluation: 4.” The ion-exchanged water free of any degradation components was set as “Evaluation: 0.” The intensity of the off-flavor (masking effect) of each sample was then relatively evaluated according to the following evaluation criteria.
(§4) • Off-flavor is strongly sensed: 4 points • Off-flavor is sensed: 3 points • Off-flavor is slightly sensed: 2 points • Off-flavor is barely sensed: 1 point • Off-flavor is not sensed at all: 0 points
(§5) Also, the intensity of the masking components (impact on the flavor of the food and/or beverage itself) was absolutely evaluated according to the following evaluation criteria.
(§6) • Masking component is strongly sensed: 4 points • Masking component is sensed: 3 points • Masking component is slightly sensed: 2 points • Masking component is barely sensed: 1 point • Masking component is not sensed at all: 0 points

[2] = Sensory evaluation of aqueous solution III containing 1-octen-3-one 1 ppb: off-flavor intensity and masking component intensity; details: average panel score
Experimental: as §1, §2, §3, §4, §5, §6

[3] = Sensory evaluation of aqueous solution II containing (E)-2-octenal 10 ppb: off-flavor intensity and masking component intensity; details: average panel score
Experimental: as §1, §2, §3, §4, §5, §6

[4] = Sensory evaluation of aqueous solution I containing (E)-2-nonenal 1 ppb: off-flavor intensity and masking component intensity; details: average panel score
Experimental: as §1, §2, §3, §4, §5, §6

[5] = Sensory evaluation of aqueous solution V containing 1-octen-3-ol 10 ppb: off-flavor intensity and masking component intensity; details: average panel score
Experimental: as §1, §2, §3, §4, §5, §6

[6] = Sensory evaluation of aqueous solution IV containing 1,5-octadien-3-one 100 ppt: off-flavor intensity and masking component intensity; details: aqueous solution IV, average panel score
Experimental: as §1, §2, §3, §4, §5, §6

[7] = Sensory evaluation of aqueous solution VI containing 1,5-octadien-3-ol 10 ppb: off-flavor intensity and masking component intensity; details: aqueous solution VI, average panel score
Experimental: as §1, §2, §3, §4, §5, §6

SMILES: CC1CCC(C(C)C)C(OCCO)C1 (centres unmarked) [2-menthoxyethanol]
- concentration that masks the off-flavor and does not affect the flavor of the food and/or beverage itself, lower limit [1]: ≥ 10 ppb
- concentration that masks the off-flavor and does not affect the flavor of the food and/or beverage itself, upper limit [1]: ≤ 10 ppm
- Masking Component Intensity ([2]; 1 ppb added): 0.8
- Off-Flavor Intensity ([2]; 1 ppb added): 3.1
- Masking Component Intensity ([2]; 1 ppm added): 1.9
- Off-Flavor Intensity ([2]; 1 ppm added): 2.4
- Masking Component Intensity ([2]; 10 ppb added): 1.1
- Off-Flavor Intensity ([2]; 10 ppb added): 2.9
- Masking Component Intensity ([2]; 10 ppm added): 2.5
- Off-Flavor Intensity ([2]; 10 ppm added): 2.3
- Masking Component Intensity ([2]; 50 ppm added): 3.8
- Off-Flavor Intensity ([2]; 50 ppm added): 2.0
- Masking Component Intensity ([2]; 100 ppb added): 1.8
- Off-Flavor Intensity ([2]; 100 ppb added): 2.5
- Masking Component Intensity ([2]; 100 ppm added): 3.9
- Off-Flavor Intensity ([2]; 100 ppm added): 2.0
- Masking Component Intensity ([2]; 100 ppt added): 0.6
- Off-Flavor Intensity ([2]; 100 ppt added): 3.3
- Masking Component Intensity ([3]; 1 ppb added): 0.8
- Off-Flavor Intensity ([3]; 1 ppb added): 3.3
- Masking Component Intensity ([3]; 1 ppm added): 2.0
- Off-Flavor Intensity ([3]; 1 ppm added): 2.4
- Masking Component Intensity ([3]; 10 ppb added): 1.1
- Off-Flavor Intensity ([3]; 10 ppb added): 2.9
- Masking Component Intensity ([3]; 10 ppm added): 2.6
- Off-Flavor Intensity ([3]; 10 ppm added): 2.0
- Masking Component Intensity ([3]; 50 ppm added): 3.4
- Off-Flavor Intensity ([3]; 50 ppm added): 1.5
- Masking Component Intensity ([3]; 100 ppb added): 1.6
- Off-Flavor Intensity ([3]; 100 ppb added): 2.5
- Masking Component Intensity ([3]; 100 ppm added): 3.8
- Off-Flavor Intensity ([3]; 100 ppm added): 1.3
- Masking Component Intensity ([3]; 100 ppt added): 0.5
- Off-Flavor Intensity ([3]; 100 ppt added): 3.4
- Masking Component Intensity ([4]; 1 ppb added): 0.5
- Off-Flavor Intensity ([4]; 1 ppb added): 3.4
- Masking Component Intensity ([4]; 1 ppm added): 1.6
- Off-Flavor Intensity ([4]; 1 ppm added): 2.5
- Masking Component Intensity ([4]; 10 ppb added): 0.8
- Off-Flavor Intensity ([4]; 10 ppb added): 3.0
- Masking Component Intensity ([4]; 10 ppm added): 2.3
- Off-Flavor Intensity ([4]; 10 ppm added): 1.8
- Masking Component Intensity ([4]; 50 ppm added): 3.5
- Off-Flavor Intensity ([4]; 50 ppm added): 1.4
- Masking Component Intensity ([4]; 100 ppb added): 1.3
- Off-Flavor Intensity ([4]; 100 ppb added): 2.8
- Masking Component Intensity ([4]; 100 ppm added): 3.8
- Off-Flavor Intensity ([4]; 100 ppm added): 1.0
- Masking Component Intensity ([4]; 100 ppt added): 0.3
- Off-Flavor Intensity ([4]; 100 ppt added): 3.8
- Masking Component Intensity ([5]; 1 ppb added): 0.4
- Off-Flavor Intensity ([5]; 1 ppb added): 3.1
- Masking Component Intensity ([5]; 1 ppm added): 1.8
- Off-Flavor Intensity ([5]; 1 ppm added): 2.3
- Masking Component Intensity ([5]; 10 ppb added): 0.5
- Off-Flavor Intensity ([5]; 10 ppb added): 2.6
- Masking Component Intensity ([5]; 10 ppm added): 2.6
- Off-Flavor Intensity ([5]; 10 ppm added): 2.3
- Masking Component Intensity ([5]; 50 ppm added): 3.5
- Off-Flavor Intensity ([5]; 50 ppm added): 1.8
- Masking Component Intensity ([5]; 100 ppb added): 1.4
- Off-Flavor Intensity ([5]; 100 ppb added): 2.5
- Masking Component Intensity ([5]; 100 ppm added): 3.8
- Off-Flavor Intensity ([5]; 100 ppm added): 1.6
- Masking Component Intensity ([5]; 100 ppt added): 0.1
- Off-Flavor Intensity ([5]; 100 ppt added): 3.3
- Masking Component Intensity ([6]; 1 ppb added): 0.5
- Off-Flavor Intensity ([6]; 1 ppb added): 3.4
- Masking Component Intensity ([6]; 1 ppm added): 2.3
- Off-Flavor Intensity ([6]; 1 ppm added): 2.4
- Masking Component Intensity ([6]; 10 ppb added): 1.0
- Off-Flavor Intensity ([6]; 10 ppb added): 3.0
- Masking Component Intensity ([6]; 10 ppm added): 2.6
- Off-Flavor Intensity ([6]; 10 ppm added): 2.3
- Masking Component Intensity ([6]; 50 ppm added): 3.4
- Off-Flavor Intensity ([6]; 50 ppm added): 1.9
- Masking Component Intensity ([6]; 100 ppb added): 1.6
- Off-Flavor Intensity ([6]; 100 ppb added): 2.5
- Masking Component Intensity ([6]; 100 ppm added): 3.9
- Off-Flavor Intensity ([6]; 100 ppm added): 1.8
- Masking Component Intensity ([6]; 100 ppt added): 0.1
- Off-Flavor Intensity ([6]; 100 ppt added): 3.5
- Masking Component Intensity ([7]; 1 ppb added): 0.6
- Off-Flavor Intensity ([7]; 1 ppb added): 3.3
- Masking Component Intensity ([7]; 1 ppm added): 2.0
- Off-Flavor Intensity ([7]; 1 ppm added): 2.0
- Masking Component Intensity ([7]; 10 ppb added): 1.0
- Off-Flavor Intensity ([7]; 10 ppb added): 2.8
- Masking Component Intensity ([7]; 10 ppm added): 2.5
- Off-Flavor Intensity ([7]; 10 ppm added): 1.9
- Masking Component Intensity ([7]; 50 ppm added): 3.8
- Off-Flavor Intensity ([7]; 50 ppm added): 1.5
- Masking Component Intensity ([7]; 100 ppb added): 1.8
- Off-Flavor Intensity ([7]; 100 ppb added): 2.6
- Masking Component Intensity ([7]; 100 ppm added): 4.0
- Off-Flavor Intensity ([7]; 100 ppm added): 1.3
- Masking Component Intensity ([7]; 100 ppt added): 0.3
- Off-Flavor Intensity ([7]; 100 ppt added): 3.4
